Columns and labels:
[1] = target: T1, RecG⋅DNA(A40:B40) (Thermotoga maritima, UniProt Q9WY48); test: Pi release with excess ATP, global fit to ATPase cycle model; assay type: biochemical; settings: fixed to be consistent with K i for ADP
T1 construct: made in house
T1 sequence (Q9WY48 1-780): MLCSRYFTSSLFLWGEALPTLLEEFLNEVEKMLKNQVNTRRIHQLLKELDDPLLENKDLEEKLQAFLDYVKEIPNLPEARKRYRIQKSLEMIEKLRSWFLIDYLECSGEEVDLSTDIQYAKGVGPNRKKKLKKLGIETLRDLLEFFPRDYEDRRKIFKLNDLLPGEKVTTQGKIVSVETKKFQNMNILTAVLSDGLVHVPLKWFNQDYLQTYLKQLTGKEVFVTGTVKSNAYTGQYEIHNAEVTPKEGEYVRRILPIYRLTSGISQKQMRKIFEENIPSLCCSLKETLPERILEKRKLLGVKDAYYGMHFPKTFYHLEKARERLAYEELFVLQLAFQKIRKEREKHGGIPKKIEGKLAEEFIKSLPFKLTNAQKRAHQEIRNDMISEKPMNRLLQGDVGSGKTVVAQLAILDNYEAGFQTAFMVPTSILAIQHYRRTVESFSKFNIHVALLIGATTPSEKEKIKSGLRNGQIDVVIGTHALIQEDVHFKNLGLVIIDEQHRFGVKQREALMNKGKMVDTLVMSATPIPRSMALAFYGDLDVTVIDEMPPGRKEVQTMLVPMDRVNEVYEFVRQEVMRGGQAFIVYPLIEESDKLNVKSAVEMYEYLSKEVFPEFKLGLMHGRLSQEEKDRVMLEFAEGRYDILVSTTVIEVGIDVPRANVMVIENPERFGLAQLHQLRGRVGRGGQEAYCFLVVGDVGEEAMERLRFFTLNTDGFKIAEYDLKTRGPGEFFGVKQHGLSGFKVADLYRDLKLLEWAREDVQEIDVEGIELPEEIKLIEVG
Experimental: The rate of Pi release was measured after mixing RecG⋅DNA with excess ATP, using the phosphate biosensor, in the stopped-flow apparatus (Figure 6A). […] Both phases are dependent on ATP concentration. The lag decreased, while the rate of the linear phase increased with greater concentrations of ATP. The lag is due to the steps prior to Pi release, namely ATP binding and cleavage. […] Such a burst phase would result from the relatively fast Pi release of the initial cycle before the Pi release of subsequent cycles was limited by slow ADP release.
(§1) Figure 6 ATPase cycle measurements with unmodified nucleotides. (A) Phosphate measurements at different ATP concentrations. 0.5 µM RecG, premixed with 2.5 µM DNA (A40:B40), was then mixed in the stopped-flow apparatus with ATP at the micromolar concentrations shown, in the presence of 10 µM MDCC-PBP. (B) Best fit time courses of the Pi release, based upon a model of the ATPase cycle, as described in the text. Curves were obtained by glogal fitting the curves at different concentrations, using Global kinetic Explorer. Note that in comparison, the experimental time courses show a small transient of Pi at times <100 ms. This is likely to be due to free Pi and this behavior, overlaying a lag, has been observed previously in multi-turnover measurements. (C) ADP Release kinetics. 10 µM RecG⋅DNA (A40∶B40) was pre-bound with 10 µM ADP before mixing with an excess of mantADP (20 µM): these concentrations are final in the mixing chamber. The increase in fluorescence was fitted to single exponential giving the dissociation rate constant of 11.4 (±2.2) s^−1. Rate constants were independent of mantADP concentration in the range of 20–80 µM.
A scheme of the ATPase cycle (Figure 2) was used to simulate the data to assess the individual rate constants. […] The simulated traces (Figure 6B) were obtained from a global fit to the experimental data. This was done by allowing only the rate constants that have maximum influence on the curve shapes to vary. Cleavage and Pi release were assumed to be irreversible. For the fit, Pi release was fixed at 100 s^–1, ADP release at 12.5 s^–1, as the fitting was relatively insensitive to changes in these constants. […] The resulting best fit gave rate constants for ATP binding as 0.65 (±0.02) µM^−1s^−1, dissociation of ATP as 10.0 (±0.6) s^−1, cleavage as 7.1 (±0.1) s^−1. The fit gave a cleavage rate constant similar to the value of k cat from the steady-state analysis (Table 1a). The rate constant for ADP release may be only slightly larger than that of cleavage step.
Data were fitted to theoretical equations using the stopped-flow software or Grafit. Kinetic simulations were performed using Berkeley Madonna (Version 8.3, University of California at Berkeley) and using Global Kinetic Explorer (Kintek). […]

[2] = target: T2, RecG (Thermotoga maritima, UniProt Q9WY48); test: Steady-state ATPase rate measurements with phosphate biosensor MDCC-PBP; assay type: biochemical; settings: 10 µM ATP, varying inhibitor, 500 nM DNA junction (A40:B40), 20°C
T2 construct: made in house
T2 sequence (Q9WY48 1-780): T1 sequence (Q9WY48 1-780)
Text: Steady-state measurements were made to gain an overall assessment of the reaction and the affinities of various nucleotides before investigating the individual steps in the ATPase cycle. A two-strand DNA junction, which contains two 20-bp regions of complementary and non-complementary sequences (A40:B40 Figure 1 and Table S1), was used in all these measurements. This forms a Y-shape structure and RecG translocates one single-stranded arm, but then remains bound to the end of the junction still hydrolyzing ATP [10].
All reactions with RecG and DNA were done at 20°C in a buffer containing 50 mM Tris⋅acetate (pH 8.0), 30 mM potassium acetate, 3 mM magnesium acetate and 1 mM DTT. ATPase measurements using MDCC-PBP were taken in the presence of a Pi mop, as described above. Steady-state ATPase measurements were taken in a solution (60 µl) at 20°C, containing 10 nM RecG, 500 nM DNA junction (A40∶B40, see Table S1) and 10 µM MDCC-PBP with varying nucleotide concentrations as substrate or inhibitor [23].

[3] = target: T1, RecG⋅DNA(A40:B40); test: ADP dissociation kinetics by displacement with excess mantADP; assay type: binding
Experimental: as §1, with “10 µM RecG⋅DNA (A40∶B40) was pre-bound with 10 µM ADP before mixing with an excess of mantADP (20 µM): these concentrations are final in the mixing chamber.” left out, “Rate constants were independent of mantADP concentration in the range of 20–80 µM.” left out
A direct measurement of ADP dissociation kinetics was possible because of its relatively tight binding to RecG, which allowed quantitative formation of the ADP complex. […] The rate constant for dissociation was determined from a single exponential fit as 11.4 (±2) s^−1 (Figure 6C). This value fits well with the model whereby the dissociation rate constant is calculated as ≥12.5 s^−1.

## Nc1ncnc2c1ncn2[C@@H]1O[C@H](COP(=O)(O)OP(=O)(O)O)[C@@H](O)[C@H]1O [ADP]
[1]
  ADP binding rate constant in the model: 1.7 µM^−1s^–1
[2]
  Ki: 7.3 µM
[3]; 10 µM RecG⋅DNA pre-bound with 10 µM ADP, mixed with 20 µM mantADP
  ADP dissociation rate constant: 11.4 (±2.2) s^−1
[3]; from dissociation rate constant and K i
  estimated ADP association rate constant: 1.6e+06 M⁻¹ s⁻¹
